Test results taken from patent publication US9096492B2, “Hydrated N-fullerene amino acids, method for producing the latter, and pharmaceutical compositions on the basis thereof” (priority 2011, dated 2015).
Several values for one entry are separate records, joined by “and”; a condition that tells them apart may be missing. Equal entries are not always repeated. Where two headings read alike, the source gives them in different places.

Key:
[1] = tested on: ascites Ehrlich carcinoma cells; assay: Apoptosis in ascites Ehrlich carcinoma cells of treated mice (cytofluorimetric analysis); assay type: in vivo
[2] = rat, in vivo
[3] = ascites cells having large sizes and granularity (tumor cells)
[4] = ascites cells of moderate size and granularity

## N-fullerene tris(δ-aminocaproic acid) hydrate [Agent 1]
[1]; [3]
  AnV^+ 7AAD^+ (late apoptosis): 69.5 ± 5.8%
  AnV^+ 7AAD^− (early apoptosis): 0.1 ± 0.1%
  AnV^−7AAD^− (living cells): 0.3 ± 0.1%
[1]; ascites cells having large sizes and granularity (tumor cells), hydrate
  AnV^−7AAD^+ (necrosis): 30.2% and 30.2 ± 5.9%
[1]; [4]
  Percent amount of cells with the phenotype AnV^+ 7AAD^+ (late apoptosis): 4.2 ± 2.4%
  Percent amount of cells with the phenotype AnV^+ 7AAD^− early apoptosis: 31.1 ± 10.4%
  Percent amount of cells with the phenotype AnV^−7AAD^+ (necrosis): 0.4 ± 0.4%
  Percent amount of cells with the phenotype AnV^−7AAD^− (living cells): 6.1 ± 6.2%
[2]; 3 mg/kg
  Basophils, %: 0%
  Erythrocytes, Mln/mm: 6.5 ± 1.2 Mln/mm
  Young, %: 0%
[2]; 9 mg/kg
  Basophils, %: 0%
  Erythrocytes, Mln/mm: 6.4 ± 0.5 Mln/mm
  Young, %: 0%
[2]; 20 mg/kg
  Avg. erythr. volume., mcm: 50.4 ± 1.5 mcm
  Basophils, %: 0%
  Erythrocytes, Mln/mm: 6.3 ± 0.8 Mln/mm
  Hematocrit, %: 31.2 ± 3.5%
  Young, %: 0%
